We go through 43 molecules from patent US20040063783A1, “Nitroso diphenylamine derivatives” (priority 2003, published 2004).

Each structure is given as a SMILES string. pIC50: −log10 of the molar value.

What all share (type): biochemical
Assay [1] has as its system human low molecular weight lipoproteins. Description: Prevention of cupric-ion oxidation of human low molecular weight lipoproteins (apoprotein B fluorescence), compounds of the formula II. The following applies: lipoproteins oxidized with cupric ions for 24 hours at 37° C, fluorescence excitation 360 nm, emission 460 nm. As to the method: In the test carried out, the human low molecular weight lipoproteins are oxidized with cupric ions for 24 hours at 37° C. The B apoprotein bome by these lipoproteins becomes fluorescent on oxidation (excitation at 360 nm, emission at 460 nm). In the presence of the compounds of the formula II, a decrease in fluorescence is noted, which reflects the antioxidant power of the compounds of the formula II. The results are expressed in the form of a 50% inhibitory concentration (IC50).

Assay [2] in a line: Spontaneous nitric oxide release: nitrites+nitrates titrated by colorimetry (Griess reagent, nitrate reductase). To be noted: test product final concentration 150 μM; 4 hours at 37° C; pH 7.5 PBS buffer; optical density at 540 nm. As to the method: A solution of a compound of the invention spontaneously releases nitric oxide. The nitrite ions resulting therefrom are titrated by colorimetry by means of a specific reagent (Griess). To take account of any release of nitrate ions in addition to the nitrite ions, bacterial nitrate reductase is added to the reaction medium to allow the nitrate ions formed to be reduced.
The reactions and measurements are carried out in transparent 96-well plates. The test products are dissolved at the time of use to a concentration of 3 mM in dimethyl sulfoxide. 95 μl of a reagent containing nitrate reductase (0.18U/ml in 100 mM pH 7.5 PBS buffer, 210 μM β-NADPH, 5 μM FAD) and 5 μl of a solution of the test product (final concentration of 150 μM) are then added to each well. After stirring, the mixture is left to incubate for 4 hours at 37° C. The reaction is then quenched by addition of 100 μl of the Griess reagent (Sigma G4410). The reagent is allowed to act for 5 minutes at room temperature and the optical density is then read at 540. nm. This value is proportional to the concentration of nitrites+nitrates in the medium. A calibration range is made for each plate using NaNO2.
The results are expressed as […] (μM) of nitrites+nitrates released, in Table 5 below.
On the technique in general: Nitrite, measured by Griess reagent, commonly stands in for NO production.

The subject of a further assay is Human LDLs. The assay can be described thus: Oxidation of human LDL in the presence of cupric ion (fluorescence), antioxidant effect. The following applies: human LDL 120 μg/ml, 100 μM CuCl2; difference of fluorescence readings at 2 h and 24 h, 37° C; from 3 product concentrations. As to the method:
Human LDLs dissolved in aqueous solution in the presence of cupric ion become spontaneously oxidized on their protein component, apolipoprotein B. This oxidation makes the particle fluorescent, which is exploited to measure a pharmacological effect.
The reactions and measurements are carried out in black 96-well plates, 10 μl of a solution of the test product dissolved in dimethyl sulfoxide are first mixed with 170 μl of a solution of human LDL at 120 μg/ml and 20 μl of 100 μM CuCl2. After stirring, the mixture is left to incubate for 2 hours at 37° C., and a first fluorescence reading is taken (excitation at 360 nm, reading at 460 nm). The mixture is then left to incubate for a further 22 hours, to take a second reading under the same conditions. The difference between the two values obtained is the measurement of the oxidation of the LDLs in solution. This difference is proportionately smaller the greater the antioxidant power of the test product. Probucol is used as reference product at 10 μM.
The concentrations which inhibit the oxidation by 50% (IC50) are produced from 3 product concentrations.

As for `CC(=O)Nc1ccc(S(=O)(=O)Nc2ccc(Nc3ccccc3)cc2)cc1` [T=H, X=H, A=SO2, Y=4-CH3CONH—C6H4—], the pIC50 (usually the negative decadic logarithm of the IC50, by convention in mol/L) in assay [1] was 4.91. `COc1ccc(Nc2ccc(NC(=O)c3ccc[n+]([O-])c3)cc2)cc1` gave a pIC50 in assay [1] of 4.98. On to `COc1ccc(Nc2ccc(NC(=O)Cc3cc(C(C)(C)C)c(O)c(C(C)(C)C)c3)cc2)cc1`, for which, in assay [1], the pIC50 was 5.55. In turn, `COc1ccc(Nc2ccc(NS(=O)(=O)c3cccnc3)cc2)cc1` [T=4-Me—O—, X=H, A=SO2, Y=3-pyridyl] gave a pIC50 in assay [1] of 5.10. `COc1ccc(Nc2ccc(NS(=O)(=O)c3cccc4cccnc34)cc2)cc1` gave a pIC50 in assay [1] of 5.06. In the case of `COc1ccc(Nc2ccc(NC(=O)c3cc(C(C)(C)C)c(O)c(C(C)(C)C)c3)cc2)cc1`, the pIC50 in assay [1] is 5.03. Consider `COc1ccc(N(N=O)c2ccc(NC(=O)c3cncnc3)cc2)cc1` [Example 4], for which the “Nitrates + nitrites” value in assay [2] worked out at 84 µM. The pIC50 in the assay on Human LDLs was 5.27. As to `CC(C)(Sc1cc(C(C)(C)C)c(O)c(C(C)(C)C)c1)Sc1cc(C(C)(C)C)c(O)c(C(C)(C)C)c1` [Probucol, reference compound], the pIC50 in the assay with Human LDLs was 5.19. In assay [1], `COc1ccc(Nc2ccc(NC(=O)c3cc([N+](=O)[O-])ccc3Oc3ccc(OC)cc3)cc2)cc1` had a pIC50 of 5.06. Still for that read-out and setting: with `COc1ccc(Nc2ccc(NC(=O)c3cc(Cl)cnc3Cl)cc2)cc1` the figure was 5.27; with `COc1ccc(Nc2ccc(NC(=O)c3ccco3)cc2)cc1` [T=4-MeO—, X=H, A=CO, Y=2-furyl], 5.08; with `COc1ccc(Nc2ccc(NC(=O)c3cccc([N+](=O)[O-])c3)cc2)cc1` [T=4-Me—O—, X=H, A=CO, Y=3-NO2—C6H4—], 5.19. Take `COc1ccc(N(N=O)c2ccc(NC(=O)c3ccc(C#N)cc3)cc2)cc1` [Example 12]: the “Nitrates + nitrites” value in assay [2] was determined as 22 µM. Further, in the assay with Human LDLs, the pIC50 is 5.66. In the case of `COc1ccc(N(N=O)c2ccc(NC(=O)OCc3ccccc3)cc2)cc1` [Example 253, Benzyl 4-[1-(4-methoxyphenyl)-2-oxohydrazino]phenylcarbamate], in assay [2], the “Nitrates + nitrites” value amounted to 45 µM. In addition, the pIC50 with Human LDLs is 5.44. As to `O=S(=O)(Nc1ccc(Nc2ccccc2)cc1)c1cccc(F)c1` [T=H, X=H, A=SO2, Y=3-F—C6H4—], in assay [1], the pIC50 was 5.43.

Regarding `CCn1nc(C)cc1C(=O)Nc1ccc(Nc2ccc(OC)cc2)cc1`, the pIC50 in assay [1] was 5.08. In assay [1], `CC(C)(C)c1cc(CC(=O)Nc2ccc(Nc3ccccc3)cc2)ccc1O` had a pIC50 of 5.32.

Regarding `CSc1ccc(Nc2ccc(NC(=O)c3ccccc3)cc2)cc1` [T=4-MeS—, X=H, A=CO, Y=C6H5], the pIC50 in assay [1] was 5.74.

`COc1ccc(Nc2ccc(NC(=O)OCc3ccccc3)cc2)cc1` [253 (formula II), Benzyl 4-[(4-methoxyphenyl)amino]phenylcarbamate]: in assay [1], the pIC50 is 5.70. As for `COc1ccc(N(N=O)c2ccc(NS(=O)(=O)c3ccc(OC)cc3)cc2)cc1` [Example 86], the “Nitrates + nitrites” value in assay [2] is 79 µM. Further, the pIC50 in the assay on Human LDLs was 5.42. In the case of `O=NN(c1ccccc1)c1ccc(NS(=O)(=O)c2cccnc2)cc1` [Example 6], the “Nitrates + nitrites” value in assay [2] is 83 µM. Besides, in the assay with Human LDLs, the pIC50 was 5.19. Turning to `O=S(=O)(Nc1ccc(Nc2ccccc2)cc1)c1cccs1` [T=H, X=H, A=SO2, Y=2-thienyl], the pIC50 in assay [1] is 5.48. The molecule `CCCCCCc1ccc(C(=O)Nc2ccc(Nc3ccc(OC)cc3)cc2)s1` had a pIC50 in assay [1] of 4.95. The molecule `O=S(=O)(Nc1ccc(Nc2ccccc2)cc1)c1cccnc1` [T=H, X=H, A=SO2, Y=3-pyridyl] gave a pIC50 in assay [1] of 5.13. Molecule `COc1ccc(Nc2ccc(NC(=O)c3cc4cccc(OC)c4oc3=O)cc2)cc1` had a pIC50 in assay [1] of 5.06. As for `O=[N+]([O-])c1ccc(S(=O)(=O)Nc2ccc(Nc3ccccc3)cc2)cc1` [T=H, X=H, A=SO2, Y=4-NO2—C6H4], in assay [1], the pIC50 is 5.37.

`COc1ccc(Nc2ccc(NC(=O)c3cncnc3)cc2)cc1` [T=4-Me—O—, X=H, A=CO, Y=5-pyrimidyl, 4-methoxy4′-[5-pyrimidinylcarbonylamino]diphenylamine] had a pIC50 in assay [1] of 5.28.

With `COc1ccc(Nc2ccc(NC(=O)c3cnc(Cl)nc3)cc2)cc1`, the negative logarithm of the IC50 (pIC50) in assay [1] was 5.59. For `O=NN(c1ccccc1)c1ccc(NC(=O)c2cccnc2)cc1` [Example 57], the “Nitrates + nitrites” value in assay [2] turned out to be 109 µM. In the assay with Human LDLs, the pIC50 is 5.05. For `O=NN(c1ccccc1)c1ccc(NS(=O)(=O)c2ccccc2)cc1` [Example 45] the same measures were 62 µM and 5.49. The molecule `COc1ccc(Nc2ccc(NC(=O)c3ccc(N(C)C)cc3)cc2)cc1` [T=4-MeO—, X=H, A=CO, Y=4-(CH3)2N—C6H4—] showed a pIC50 in assay [1] of 4.95. As for `COc1ccc(N(N=O)c2ccc(NC(=O)c3cccnc3)cc2)cc1` [Example 1, N-nitroso[4-methoxyphenyl][4-(3-pyridylcarbonylamino)phenyl]amine], the “Nitrates + nitrites” value in assay [2] was determined as 97 µM. For the same molecule, the pIC50 in the assay with Human LDLs was 5.19. `COc1ccc(Nc2ccc(NC(=O)c3cccnc3Oc3ccc(Cl)cc3)cc2)cc1` showed a pIC50 in assay [1] of 5.44. As to `O=S(=O)(/C=C/c1ccccc1)Nc1ccc(Nc2ccccc2)cc1`, the pIC50 in assay [1] was 4.91.

Take `O=NN(c1ccccc1)c1ccc(NC(=O)Nc2ccccc2)cc1` [Example 8]: in assay [2], the “Nitrates + nitrites” value came out at 44 µM. Further, the pIC50 in the assay with Human LDLs was 5.27.

Molecule `N#Cc1ccc(S(=O)(=O)Nc2ccc(Nc3ccccc3)cc2)cc1` [T=H, X=H, A=SO2, Y=4-CN—C6H4] had a pIC50 in assay [1] of 4.93. As to `COc1ccc(Nc2ccc(NC(=O)c3sc(S(C)(=O)=O)c4c3CCC=C4)cc2)cc1`, in assay [1], the pIC50 was 5.14. The molecule `COc1ccc(Nc2ccc(NC(=O)/C=C/c3ccccc3[N+](=O)[O-])cc2)cc1` had a negative logarithm of the IC50 (pIC50) in assay [1] of 4.88.

For `COc1ccc(N(N=O)c2ccc(NC(=O)c3cccc([N+](=O)[O-])c3)cc2)cc1` [Example 18], in assay [2], the “Nitrates + nitrites” value was 71 µM. In addition, in the assay on Human LDLs, the pIC50 was 5.43. Molecule `COc1ccc(Nc2ccc(NS(=O)(=O)c3ccc(OC)cc3)cc2)cc1` [T=4-MeO—, X=H, A=SO2, Y=4-MeO—C6H4—] gave a pIC50 in assay [1] of 5.30. Regarding `COc1ccc(Nc2ccc(NC(=O)c3cccnc3)cc2)cc1` [T=4-MeO—, X=H, A=CO, Y=3-pyridyl], in assay [1], the pIC50 is 5.42.

For `CC(=O)Nc1ccc(S(=O)(=O)Nc2ccc(Nc3ccccc3)cc2)cc1Cl` [T=H, X=H, A=SO2, Y=3-Cl,4-CH3CONH—C6H3—], the pIC50 in assay [1] was 4.87. As for `COc1ccc(Nc2ccc(NC(=O)c3cccc(C(F)(F)F)c3)cc2)cc1` [T=4-MeO—, X=H, A=CO, Y=3-CF3—C6H4—], the negative logarithm of the IC50 (pIC50) in assay [1] was 5.19.
